Patent US9340575B2, “Agonists and antagonists of the urotensinergic system” (INSTITUT NATIONAL DE LA RECHERCHE SCIENTIFIQUE, priority 2011, dated 2016)
“Also recorded” adds a separate entry of the source.

Assays:
[1] = target: T1, human urotensin II receptor (UT) (Homo sapiens, UniProt Q9UKP6); experiment: Competitive radioligand binding on CHO-UT cells; conditions: for IC50: recombinant human UT
T1 construct: expressed in transfected cells; host or cells: CHO cells (CHO-UT), stably transfected, G418 selection
T1 sequence (Q9UKP6 1-389): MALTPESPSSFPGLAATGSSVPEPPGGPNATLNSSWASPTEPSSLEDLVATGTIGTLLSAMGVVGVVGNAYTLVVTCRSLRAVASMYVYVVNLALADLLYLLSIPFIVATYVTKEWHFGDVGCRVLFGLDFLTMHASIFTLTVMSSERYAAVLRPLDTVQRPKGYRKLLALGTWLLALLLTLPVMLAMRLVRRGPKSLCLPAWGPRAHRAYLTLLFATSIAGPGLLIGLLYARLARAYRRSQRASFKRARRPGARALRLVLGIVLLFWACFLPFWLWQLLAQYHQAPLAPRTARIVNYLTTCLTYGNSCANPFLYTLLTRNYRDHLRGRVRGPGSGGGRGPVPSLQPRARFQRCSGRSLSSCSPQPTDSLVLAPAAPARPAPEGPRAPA
Protocol: Transfected CHO cells expressing the human urotensin receptor (CHO-UT) were maintained in Ham-F12 medium with 10% fetal bovine serum (FBS), 2 mM L-glutamine, 100 UI/mL each of penicillin and streptomycin, and 400 μg/mL G418. […] Binding assays were following known literature procedures using CHO cells stably transfected with hGPR14. […] After 90 min of incubation at room temperature, cells were washed, lysed, and the cell-bound radioactivity was quantified using a γ-counter. […] The cells were then washed, lysed, and the radioactivity counted on a γ-counter (1470 Automatic Gamma Counter, Perkin Elmer). Binding and functional experiments were performed at least in triplicate and data, expressed as mean±S.E.M, were analyzed using the Prism software (Graph Pad Software, San Diego, Calif.). In all experiments, n represents the total number of animals studied or individual assays performed. The EC50, pEC50, pIC50 values as well as the Emax value were determined from the concentration-response curves using a sigmoidal dose-response fit with variable slope. […] The slope is calculated from the double reciprocal plot of equiactive concentrations of agonist in the presence and absence of antagonist.

rat thoracic aorta rings [2] = experiment: Effect on ET-1-induced contraction of rat aortic ring; type: cell-based; conditions: [Bip^4]URP 10^−6M
Protocol: Male rats (Sprague-Dawley, 250-300 g) were killed by CO2 asphyxiation. The thoracic aorta was then cleared of surrounding tissues and excised from aortic arch to the diaphragm. From each vessel, conjunctive tissues were removed and the clean vessel was cut into 4 mm rings. The endothelium was removed by gently rubbing the vessel's intimal surface. All preparations were placed in 5 ml organ baths filled with oxygenated normal Krebs-Henselheit solution. Contractile responses to 40 mM KCl were used as control at the beginning and at the end of each experiment. Agonistic activity was measured by increasing the concentration of the peptide in the organ chamber (3×10^−11-3×10^−6 M). For antagonist behaviour, thoracic aortic rings were first exposed to URP derivative over a period of 15 min, and then cumulative concentration-response curves to hUII, URP or ET-1 (10^−10-3×10^−6 M) were constructed. The amplitude of the contraction induced by each concentration of peptide was expressed as a percentage of the KCl-induced contraction. Finally, the ability of the antagonist to reverse the hUII-induced contraction was also evaluated. Vessels were pre-contracted with 4 nM hUII (pre-determined EC80) and after the maximum contraction was attained, contractile tone was reversed by adding increasing log unit concentrations of URP derivative.

rat thoracic aorta rings [3] = type: cell-based; conditions: percentage of KCl (40 mM) contraction; at 10^−5.5M
Protocol: Binding and functional experiments were performed at least in triplicate and data, expressed as mean±S.E.M, were analyzed using the Prism software (Graph Pad Software, San Diego, Calif.). In all experiments, n represents the total number of animals studied or individual assays performed. The EC50, pEC50, pIC50 values as well as the Emax value were determined from the concentration-response curves using a sigmoidal dose-response fit with variable slope. […] The slope is calculated from the double reciprocal plot of equiactive concentrations of agonist in the presence and absence of antagonist.

## CC(C)[C@H](NC(=O)[C@@H]1CSSC[C@H](NC(=O)[C@H](C)N)C(=O)N[C@@H](Cc2ccccc2)C(=O)N[C@@H](Cc2ccc(-c3ccccc3)cc2)C(=O)N[C@@H](CCCCN)C(=O)N[C@@H](Cc2ccc(O)cc2)C(=O)N1)C(=O)O [[Bip^4]URP, H-Ala-Cys-Phe-Bip-Lys-Tyr-Cys-Val-OH]
[1]; Binding (125I-URP) IC50 (nM), radioligand 125I-URP
  IC50: 339 nM
[1]; Binding (125I-hUII) IC50 (nM), radioligand 125I-hUII
  IC50: 386 nM
[1]; CHO-UT cells
  Displacement of both radioligands (125I-hUII and 125I-URP): 100%
Rat thoracic aorta rings [2]
  Effect on ET-1-induced contraction (in words): not able to alter the concentration-response curves; also recorded: did not inhibit or potentiate
Rat thoracic aorta rings [3]
  Aortic Ring contraction Emax (%), maximum efficacy at 10^−5.5M: 8.7%
